These results are taken from US9067898B1, “Isothiazole derivatives as GPR120 agonists for the treatment of type II diabetes” (Janssen Pharmaceutica NV, priority 2014, dated 2015).

Holding throughout (assay type): cell-based
One assay concerns the target T1, Human GPR120 short form (Homo sapiens, UniProt Q5NUL3).
T1 construct: expressed in transfected cells
T1 sequence (Q5NUL3 1-361): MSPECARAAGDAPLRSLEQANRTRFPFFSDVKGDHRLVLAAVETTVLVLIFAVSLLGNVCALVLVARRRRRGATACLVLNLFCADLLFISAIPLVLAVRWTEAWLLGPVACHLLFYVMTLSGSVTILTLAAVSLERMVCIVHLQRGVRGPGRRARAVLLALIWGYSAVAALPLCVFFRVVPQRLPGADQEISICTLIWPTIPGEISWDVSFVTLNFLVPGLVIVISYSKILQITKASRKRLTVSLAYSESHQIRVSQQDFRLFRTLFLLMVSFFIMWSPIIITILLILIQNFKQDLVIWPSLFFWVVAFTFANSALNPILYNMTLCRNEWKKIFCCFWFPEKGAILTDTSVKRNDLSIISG
Description: Human GPR120 calcium flux assay (FLIPR), Procedure Calcium B. Conditions: HEK-293 cells expressing human GPR120 short form, 4200 cells/well; read-out: GPR120 Ca2+ Assay B EC50. The source says:
This in vitro assay serves to assess test compound agonist activity against the short splice variant (SVS with Accession number NM_001195755.1 confirmed by sequencing data) of the GPR120 receptor. The Human Short splice variant #2 (NM_001195755.1) is missing an in-frame coding exon compared to variant 1 (the Human Long splice variant NM_181745.3), resulting in a shorter isoform (GPR120-S) lacking a 16 aa protein segment compared to isoform GPR120-L. The assay platform utilizes HEK-293 cells stably transfected to express the Human GPR120 short form. These cells are first loaded with the Ca^+2 sensitive dye, Fluo-4 NW. Upon stimulation, intracellular released Ca^+2 can bind to the dye and alter its fluorescence intensity. This increase in fluorescence signal, and thus the flux in intracellular [Ca^2+], is detected and quantitated by fluorescence imaging using a FLIPR reader. The effect of the agonist is measured as a function of concentration and used to calculate an EC50 based upon a response curve.
In this procedure 4200 cells/well were employed.
A Human GPR120 clone (Genbank accession number NM_001195755.1) was placed into the pcDNA3.1 mammalian expression vector carrying the neomycin resistance gene. A stable mammalian cell was generated by placing the above clone into a HEK293 background. Clonal cells responding to long chain fatty acids had expression levels of GPR120 confirmed by RT-qPCR. Human HEK-GPR120 cells were cultured in Dulbecco's Modified Eagle's Medium (DMEM)/F12 medium supplemented with 10% fetal bovine serum (FBS), 1% L-Glutamine and 1% penicillin/streptomycin and 0.5 mg/ml G-418. Cells were split 2 times a week to keep the cells in the log-phase growth.
In preparation for the assay, HEK cells stably transfected with Human GPR120 (2.5K cells per well in 25 uL growth medium) were seeded into 384-well plates and then incubated overnight (37° C., 5% CO2). The next day, the media was changed to 20 μL assay buffer and the cell starved for 1 h at 37° C. The dye loading solution (2× dye) was prepared using 10 mL assay buffer, 100 μL of 250 mM probenecid, 1 bottle of Component A, and 20 μl of dye in DMSO. Twenty μL of the 2× dye loading buffer was then added to each well. The plates were incubated at 37° C. for 30 min, then at room temperature for an additional 15 minutes, before performing the assay on FLIPR. Test compounds were prepared in assay buffer (2 uL of cpd+198 uL assay buffer, final DMSO in assay plate is 0.2%) at the desired concentration, more particularly at 100, 50, 25, 12.5, 6.25, 3.125, 1.562, 0.781, 0.391, 0.195, 0.098, 0.049, 0.024 and 0.012 μM.
The assay was performed on a FLIPR plate reader using the following parameters. Baseline was read for 10 seconds at 1 sec intervals. The program was set to transfer 10 μL of ligand from compound plate to cell plate after baseline reading. Aspiration was executed at: 10 μL/sec speed, 4.6 μL height; Dispensing was executed at: 30 μL/sec speed, 45 μL height. After compound addition, each well was read for 300 sec, with measurements collected at 1 sec intervals.
The kinetic data from the FLIPR was based upon a 5 minute window for data collection. The fluorescence of each sample well was used for individual calculations of a normalized RFU value, which was defined as maximum response minus the minimum response. The normalized fluorescence reading (RFU) was calculated as follows: RFU=Fmax−Fmin The data were fitted to a sigmoidal dose-response curve with a variable Hill slope (<2) using nonlinear regression with GraphPad Prism 5.0 to calculate the EC50 values. The Fitting Equation was: Y=Bottom+(Top−Bottom)/(1+10^((Log EC50−X)*HillSlope)), where X is the log of the concentration and Y is the response.

Assay [1] concerns the target T2, short form of the GPR120 receptor (GPR120S) (Homo sapiens, UniProt Q5NUL3).
T2 construct: host or cells: PathHunter CHO-K1 GPR120S β-Arrestin Cell Line
Description: Human GPR120 DiscoveRx PathHunter Beta-Arrestin assay, Procedure β-arrestin B. The conditions noted are these: PathHunter CHO-K1 GPR120S β-Arrestin cell line, 5000 cells/well, read-out: hGPR120 β-arrestin B EC50. The essentials: (§1)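 PathHunter CHO-K1 β-arrestin cells expressed long-form GPR120 (Procedure A, 3000 cells/well) or short-form GPR120 (Procedure B, 5000 cells/well). Compounds were serially diluted from 25 µM and incubated 90 min at 37 °C in HBSS/20 mM HEPES/0.1% BSA, pH 7.4. Luminescence was read after 60 min detection at RT; EC50 comes from % activity versus positive control, Hill slope fixed at 1.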

The target in assay [2] is T3, long form of human GPR120 (Homo sapiens, UniProt Q5NUL3).
T3 construct: host or cells: PathHunter CHO-K1 GPR120 β-Arrestin Cell Line
Kind of assay: Human GPR120 DiscoveRx PathHunter Beta-Arrestin assay, Procedure β-arrestin A. The conditions noted are these: PathHunter CHO-K1 GPR120 β-Arrestin cell line, 3000 cells per well, read-out: hGPR120 β-arrestin A EC50. An outline of the steps:
as §1

T2 sequence (P32121 whole entry partner, one chain of several): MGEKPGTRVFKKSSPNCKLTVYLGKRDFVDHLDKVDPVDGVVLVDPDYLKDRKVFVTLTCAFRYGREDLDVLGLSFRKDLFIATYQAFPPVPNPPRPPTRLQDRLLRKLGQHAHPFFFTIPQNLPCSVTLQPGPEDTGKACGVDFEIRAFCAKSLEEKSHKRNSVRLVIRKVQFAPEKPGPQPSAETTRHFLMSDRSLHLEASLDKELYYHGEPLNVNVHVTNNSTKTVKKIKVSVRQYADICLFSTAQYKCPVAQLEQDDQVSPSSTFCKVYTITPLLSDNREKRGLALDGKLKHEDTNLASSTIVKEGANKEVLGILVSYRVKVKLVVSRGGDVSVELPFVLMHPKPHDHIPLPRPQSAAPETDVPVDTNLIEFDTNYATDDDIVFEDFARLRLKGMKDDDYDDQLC
T3 sequence (Q5NUL3 1-377 isoform Q5NUL3-1): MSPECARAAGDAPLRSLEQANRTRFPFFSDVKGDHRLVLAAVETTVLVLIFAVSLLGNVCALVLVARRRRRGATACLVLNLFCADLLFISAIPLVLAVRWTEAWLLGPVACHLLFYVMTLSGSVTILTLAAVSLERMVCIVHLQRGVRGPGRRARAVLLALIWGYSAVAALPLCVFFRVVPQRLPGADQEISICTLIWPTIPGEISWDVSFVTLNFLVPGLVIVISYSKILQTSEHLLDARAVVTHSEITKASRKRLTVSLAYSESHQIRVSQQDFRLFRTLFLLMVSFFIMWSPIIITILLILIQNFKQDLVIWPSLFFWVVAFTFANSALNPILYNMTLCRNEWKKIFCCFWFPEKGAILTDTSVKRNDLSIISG
T3 sequence (P32121 whole entry partner): as the sequence (P32121 whole entry partner, one chain of several) above

In the case of `Cc1cc(OCc2c(-c3ccc(Cl)cc3)nsc2C(F)(F)F)c(F)cc1CCCO` [Cpd 63, 3-(4-((3-(4-chlorophenyl)-5-(trifluoromethyl)isothiazol-4-yl)methoxy)-5-fluoro-2-methylphenyl)propan-1-61], the EC50 amounted to 200 nM on Human GPR120 short form and 122 nM in assay [1].

In the case of `CCc1ccc(-c2nsc(C(C)C)c2COc2ccc(CCC(=O)O)c(C)c2C)cc1` [Cpd 64, 3-(4-[[3-(4-ethylphenyl)-5-(propan-2-yl)-1,2-thiazol-4-yl]methoxy]-2,3-dimethylphenyl)propanoic acid], the EC50 on Human GPR120 short form turned out to be 923 nM.

Consider `Cc1ccc(-c2snc(Cl)c2COc2c(F)cc(CCC(=O)O)cc2F)c(F)c1` [Cpd 252, 3-(4-{[3-Chloro-5-(2-fluoro-4-methylphenyl)isothiazol-4-yl]methoxy}-3,5-difluorophenyl)propanoic acid], for which the EC50 on Human GPR120 short form turned out to be 45 nM; in assay [2], 191 nM.

As for `Cc1ccccc1-c1snc(Cl)c1COc1ccc(CCC(=O)O)c(C(F)(F)F)c1` [Cpd 253, 3-[4-{[3-Chloro-5-(2-methylphenyl)isothiazol-4-yl]methoxy}-2-(trifluoromethyl)phenyl]propanoic acid], on Human GPR120 short form, the EC50 was determined as 349 nM.

Turning to `Cc1ccccc1-c1snc(Cl)c1COc1ccc(CCC(=O)O)cc1` [Cpd 254, 3-(4-{[3-Chloro-5-(2-methylphenyl)isothiazol-4-yl]methoxy}phenyl)propanoic acid], the EC50 on Human GPR120 short form came to 401 nM.

As for `Cc1ccc(-c2snc(Cl)c2COc2ccc(CCC(=O)O)cc2)c(C)c1` [Cpd 255, 3-(4-{[3-Chloro-5-(2,4-dimethylphenyl)isothiazol-4-yl]methoxy}phenyl)propanoic acid], the EC50 on Human GPR120 short form is 550 nM.

As to `Cc1ccc(-c2snc(Cl)c2COc2ccc(CCC(=O)O)c(C(F)(F)F)c2)c(C)c1` [Cpd 256, 3-[4-{[3-Chloro-5-(2,4-dimethylphenyl)isothiazol-4-yl]methoxy}-2-(trifluoromethyl)phenyl]propanoic acid], the EC50 at Human GPR120 short form worked out at 986 nM.

Turning to `Cc1cc(OCc2c(Cl)nsc2-c2ccccc2C)ccc1CCC(=O)O` [Cpd 257, 3-(4-{[3-Chloro-5-(2-methylphenyl)isothiazol-4-yl]methoxy}-2-methylphenyl)propanoic acid], the EC50 on Human GPR120 short form worked out at 1060 nM.

On to `COc1cc(OCc2c(Cl)nsc2-c2ccc(C)cc2F)ccc1CCC(=O)O` [Cpd 258, 3-(4-{[3-Chloro-5-(2-fluoro-4-methylphenyl)isothiazol-4-yl]methoxy}-2-methoxyphenyl)propanoic acid], for which, on Human GPR120 short form, the EC50 amounted to 210 nM.

As for `O=C(O)CCc1ccc(OCc2c(Cl)nsc2-c2ccccc2Cl)cc1C(F)(F)F` [Cpd 259, 3-[4-{[3-Chloro-5-(2-chlorophenyl)isothiazol-4-yl]methoxy}-2-(trifluoromethyl)phenyl]propanoic acid], the concentration giving a half-maximal response (EC50) on Human GPR120 short form was found to be 261 nM.

`COc1ccccc1-c1snc(Cl)c1COc1ccc(CCC(=O)O)c(C(F)(F)F)c1` [Cpd 260, 3-[4-{[3-Chloro-5-(2-methoxyphenyl)isothiazol-4-yl]methoxy}-2-(trifluoromethyl)phenyl]propanoic acid]: the EC50 at Human GPR120 short form worked out at 3430 nM.

Regarding `N#Cc1ccc(-c2nsc(C(F)(F)F)c2COc2c(F)cc(CCC(=O)O)cc2F)cc1` [Cpd 261, 3-(4-{[3-(4-Cyanophenyl)-5-(trifluoromethyl)isothiazol-4-yl]methoxy}-3,5-difluorophenyl)propanoic acid], the values for the EC50 (on Human GPR120 short form; in assay [1]) were 672 nM and 332 nM, respectively.

Regarding `OCCCc1cc(F)c(OCc2c(-c3ccc(Cl)cc3F)nsc2C(F)(F)F)c(F)c1` [Cpd 262, 3-(4-{[3-(4-Chloro-2-fluorophenyl)-5-(trifluoromethyl)isothiazol-4-yl]methoxy}-3,5-difluorophenyl)propan-1-ol], the EC50 at Human GPR120 short form came out at 139 nM; in assay [1], 80 nM.

`Cc1c(CCC(=O)O)ccc(OCc2c(-c3ccc(C#N)cc3)nsc2C(F)(F)F)c1C` [Cpd 264, 3-(4-{[3-(4-Cyanophenyl)-5-(trifluoromethyl)isothiazol-4-yl]methoxy}-2,3-dimethylphenyl)propanoic acid]: the EC50 at Human GPR120 short form came out at 379 nM; in assay [1], 667 nM.

For the compound `CC(Cc1cc(F)c(OCc2c(-c3ncc(Cl)cc3F)nsc2C(F)(F)F)c(F)c1)C(=O)O` (stereo not shown) [Cpd 265, 3-(4-{[3-(5-Chloro-3-fluoropyridin-2-yl)-5-(trifluoromethyl)isothiazol-4-yl]methoxy}-3,5-difluorophenyl)-2-methylpropanoic acid], the EC50 on Human GPR120 short form was 248 nM; in assay [1], 527 nM.

Regarding `CC(Cc1ccc(OCc2c(-c3ncc(Cl)cc3F)nsc2C(F)(F)F)c(F)c1)C(=O)O` (stereo not shown) [Cpd 266, 3-(4-{[3-(5-Chloro-3-fluoropyridin-2-yl)-5-(trifluoromethyl)isothiazol-4-yl]methoxy}-3-fluorophenyl)-2-methylpropanoic acid], the EC50 on Human GPR120 short form was found to be 289 nM; in assay [1], 982 nM.

For the compound `O=C(O)CCc1ccc(OCc2c(-c3ccc(Cl)cc3)nsc2C(F)(F)F)cc1C(F)F` [Cpd 274, 3-[4-{[3-(4-Chlorophenyl)-5-(trifluoromethyl)isothiazol-4-yl]methoxy}-2-(difluoromethyl)phenyl]propanoic acid], the EC50 on Human GPR120 short form stood at 3980 nM.

On to `Cc1cc(OCc2c(-c3ccc(Cl)cc3)nsc2C(F)(F)F)ccc1CCC(=O)O` [Cpd 275, 3-(4-{[3-(4-Chlorophenyl)-5-(trifluoromethyl)isothiazol-4-yl]methoxy}-2-methylphenyl)propanoic acid], for which the EC50 on Human GPR120 short form was 1110 nM.

Consider `CC1CC=C(c2snc(Cl)c2COc2ccc(CCC(=O)O)c(C(F)(F)F)c2)CC1` (stereo not shown) [Cpd 276, 3-[4-{[3-Chloro-5-(4-methylcyclohex-1-en-1-yl)isothiazol-4-yl]methoxy}-2-(trifluoromethyl)phenyl]propanoic acid], for which the EC50 on Human GPR120 short form amounted to 886 nM.

On to `Cc1ccc(-c2snc(Cl)c2COc2ccc(CCC(=O)O)c(C(C)(F)F)c2)cc1` [Cpd 278, 3-[4-{[3-Chloro-5-(4-methylphenyl)isothiazol-4-yl]methoxy}-2-(1,1-difluoroethyl)phenyl]propanoic acid], for which the EC50 at Human GPR120 short form worked out at 601 nM.

As for `Cc1ccc(-c2snc(Cl)c2COc2ccc(CCC(=O)O)c(C(C)F)c2)cc1` (stereo not shown) [Cpd 279, 3-[4-{[3-Chloro-5-(4-methylphenyl)isothiazol-4-yl]methoxy}-2-(1-fluoroethyl)phenyl]propanoic acid], the EC50 on Human GPR120 short form was 755 nM.
